Assays:
Assay in all cases: relative viability (nuclei count vs DMSO), 5 days (fraction); higher = more cells survive
[1] = compound: Cc1ccc2nc(NCCN)c3ncc(C)n3c2c1 + CC(C)C[C@H](NC(=O)[C@H](Cc1ccccc1)NC(=O)c1cnccn1)B(O)O [Bortezomib] (partner 0.002 µM)
Summary of the method: (§1)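 The day after seeding in 1536-well plates, lung cancer cell lines were treated by pin tool with a single drug, or with a fixed anchor-drug dose together with five library-drug doses (not always all listed) in √10 steps. After 5 days, a combined fix-and-stain solution (final 0.05% Triton X-100, 1% formaldehyde, 1 ug/ml Hoechst) was added. Nuclei counted on 4× images gave relative viability as treated counts over vehicle counts, reported as the median of duplicate plates.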

[2] = compound: Cc1ccc2nc(NCCN)c3ncc(C)n3c2c1 + C[C@@H](Oc1cc(-c2cnn(C3CCNCC3)c2)cnc1N)c1c(Cl)ccc(F)c1Cl [Crizotinib] (partner 1 µM)
Summary of the method: as §1

[3] = compound: O=C(/C=C/c1ccccc1)NC(NC(=S)Nc1cccc2cccnc12)C(Cl)(Cl)Cl [Salubrinal] + CC(C)C[C@H](NC(=O)[C@H](Cc1ccccc1)NC(=O)c1cnccn1)B(O)O [Bortezomib] (partner 0.002 µM)
Summary of the method: as §1

[4] = compound: O=C(/C=C/c1ccccc1)NC(NC(=S)Nc1cccc2cccnc12)C(Cl)(Cl)Cl [Salubrinal] + NC(=O)Nc1cc(-c2cccc(F)c2)sc1C(=O)N[C@H]1CCCNC1 [AZD7762] (partner 0.2 µM)
Summary of the method: as §1

Row | Cell Line | relative viability ([1]; first compound 0.04 µM) | relative viability ([1]; first compound 0.1265 µM) | relative viability ([1]; first compound 0.4 µM) | relative viability ([1]; first compound 1.265 µM) | relative viability ([1]; first compound 4 µM) | relative viability ([2]; first compound 0.04 µM) | relative viability ([2]; first compound 0.1265 µM) | relative viability ([2]; first compound 0.4 µM) | relative viability ([2]; first compound 1.265 µM) | relative viability ([2]; first compound 4 µM) | relative viability ([3]; first compound 0.08 µM) | relative viability ([3]; first compound 0.253 µM) | relative viability ([3]; first compound 0.8 µM) | relative viability ([3]; first compound 2.53 µM) | relative viability ([3]; first compound 8 µM) | relative viability ([4]; first compound 0.08 µM) | relative viability ([4]; first compound 0.253 µM) | relative viability ([4]; first compound 0.8 µM) | relative viability ([4]; first compound 2.53 µM) | relative viability ([4]; first compound 8 µM)
1 | NCI-H2085 | 1.13 | 1.02 | 1.04 | 1.05 | 1.03 | 1.01 | 0.77 | 0.879 | 0.848 | 0.87 | 1.07 | 0.877 | 1.04 | 1.03 | 1.05 | 1.14 | 0.905 | 0.944 | 0.946 | 0.932
2 | NCI-H2087 | 0.756 | 0.955 | 0.66 | 0.824 | 0.864 | 1.1 | 0.926 | 0.782 | 0.932 | 0.727 | 0.755 | 0.458 | 0.855 | 0.809 | 0.989 | 1.44 | 0.751 | 1.44 | 1.31 | 1.29
3 | NCI-H2126 | 1.15 | 1.1 | 1.18 | 1.16 | 1.13 | 1.04 | 0.999 | 1.09 | 1 | 1.03 | 1.11 | 1.02 | 1.21 | 1.22 | 1.07 | 1.05 | 0.936 | 1.06 | 0.992 | 0.909
4 | NCI-H2347 | 1.09 | 0.919 | 0.932 | 1.14 | 1.07 | 0.653 | 0.673 | 0.615 | 0.617 | 0.625 | 1.05 | 1.04 | 0.998 | 1.17 | 1.04 | 0.537 | 0.82 | 0.919 | 0.749 | 0.744
5 | NCI-H2405 | 1.03 | 1.03 | 0.964 | 0.969 | 0.918 | 0.951 | 0.827 | 0.853 | 0.838 | 0.791 | 1.11 | 0.963 | 1.02 | 1.04 | 1.05 | 0.872 | 0.704 | 0.835 | 0.813 | 0.664
6 | NCI-H3122 | 0.957 | 1.03 | 1.05 | 0.985 | 1.1 | 0.291 | 0.304 | 0.293 | 0.286 | 0.318 | 1 | 1.01 | 0.927 | 0.98 | 0.991 | 1.16 | 0.979 | 1.07 | 1.1 | 1.05
7 | PC-3 [JPC-3] | 0.863 | 0.893 | 0.723 | 0.842 | 0.707 | 0.973 | 0.992 | 0.974 | 0.947 | 0.966 | 0.775 | 0.718 | 0.89 | 0.863 | 0.75 | 0.833 | 0.67 | 0.923 | 0.928 | 0.671
8 | PC-14 | 0.957 | 0.884 | 0.761 | 0.904 | 0.782 | 1.08 | 0.862 | 0.864 | 0.901 | 0.892 | 0.94 | 0.639 | 0.979 | 1 | 0.874 | 0.485 | 0.422 | 0.418 | 0.365 | 0.367
9 | RERF-LC-KJ | 1.19 | 0.968 | 1.11 | 1.07 | 0.983 | 0.829 | 0.791 | 0.777 | 0.722 | 0.789 | 1.29 | 0.984 | 1.24 | 1.03 | 1.15 | 1.05 | 0.917 | 1.1 | 0.999 | 0.885

— the supplement of paper PMC10307832
